# Test system: 883617-216-R-J1-PDC complex spheroid viability
# Test: Anticancer human tumor 883617-216-R-J1-PDC patient-derived bladder carcinoma cell line growth inhibition [POLQ]
# Conditions: for IC50: curve of first compound; for viability, T/C: stronger effect = lower value
# Procedure, shortened: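 Three-cell-type spheroids modelling solid tumor plus stroma served as the readout system; POL inhibitors were tested individually and in combination, concentration ranges set by clinical Cmax where known.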
# [1] = second compound 0.0316 µM, first compound 0.0316 µM
# [2] = second compound 0.0316 µM, first compound 0.1 µM
# [3] = second compound 0.0316 µM, first compound 0.316 µM
# [4] = second compound 0.0316 µM, first compound 1 µM
# [5] = second compound 0.0316 µM, first compound 3.16 µM
# [6] = second compound 0.0316 µM, first compound 10 µM
# [7] = second compound 0.1 µM, first compound 0.0316 µM
# [8] = second compound 0.1 µM, first compound 0.1 µM
# [9] = second compound 0.1 µM, first compound 0.316 µM
# [10] = second compound 0.1 µM, first compound 1 µM
# [11] = second compound 0.1 µM, first compound 3.16 µM
# [12] = second compound 0.1 µM, first compound 10 µM
# [13] = second compound 0.316 µM, first compound 0.0316 µM
# [14] = second compound 0.316 µM, first compound 0.1 µM
# [15] = second compound 0.316 µM, first compound 0.316 µM
# [16] = second compound 0.316 µM, first compound 1 µM
# [17] = second compound 0.316 µM, first compound 3.16 µM
# [18] = second compound 0.316 µM, first compound 10 µM
# [19] = second compound 1 µM, first compound 0.0316 µM
# [20] = second compound 1 µM, first compound 0.1 µM
# [21] = second compound 1 µM, first compound 0.316 µM
# [22] = second compound 1 µM, first compound 1 µM
# [23] = second compound 1 µM, first compound 3.16 µM
# [24] = second compound 1 µM, first compound 10 µM
# [25] = second compound 3.16 µM, first compound 0.0316 µM
# [26] = second compound 3.16 µM, first compound 0.1 µM
# [27] = second compound 3.16 µM, first compound 0.316 µM
# [28] = second compound 3.16 µM, first compound 1 µM
# [29] = second compound 3.16 µM, first compound 3.16 µM
# [30] = second compound 3.16 µM, first compound 10 µM
# [31] = second compound 10 µM, first compound 0.0316 µM
# [32] = second compound 10 µM, first compound 0.1 µM
# [33] = second compound 10 µM, first compound 0.316 µM
# [34] = second compound 10 µM, first compound 1 µM
# [35] = second compound 10 µM, first compound 3.16 µM
# [36] = second compound 10 µM, first compound 10 µM
# 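Note: spheroids exposed to compounds for seven days before readout.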
# 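Throughout, for viability, T/C: 100% = DMSO vehicle control viability.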
compound,measurement,setting,value
CCc1cc2c(N3CCc4c(cc(Cn5ccnc5)cc4-c4cn(C)nc4C(F)(F)F)C3=O)ccnc2c(OC)n1 + COC1C(OC(N)=O)C(O)C(Oc2ccc3c(O)c(NC(=O)c4ccc(O)c(CC=C(C)C)c4)c(=O)oc3c2C)OC1(C)C,IC50,second compound 0.0316 µM,> 10 µM
same,IC50,second compound 0.1 µM,> 10 µM
same,IC50,second compound 0.316 µM,> 10 µM
same,IC50,second compound 1 µM,> 10 µM
same,IC50,second compound 3.16 µM,> 10 µM
same,IC50,second compound 10 µM,> 10 µM
same,"viability, T/C",[1],103%
same,"viability, T/C",[2],103%
same,"viability, T/C",[3],97.7%
same,"viability, T/C",[4],104%
same,"viability, T/C",[5],78.8%
same,"viability, T/C",[6],57.6%
same,"viability, T/C",[7],97.8%
same,"viability, T/C",[8],93.9%
same,"viability, T/C",[9],101%
same,"viability, T/C",[10],92.5%
same,"viability, T/C",[11],72.7%
same,"viability, T/C",[12],58.6%
same,"viability, T/C",[13],106%
same,"viability, T/C",[14],93.4%
same,"viability, T/C",[15],115%
same,"viability, T/C",[16],99.9%
same,"viability, T/C",[17],78.2%
same,"viability, T/C",[18],53.5%
same,"viability, T/C",[19],102%
same,"viability, T/C",[20],93.1%
same,"viability, T/C",[21],115%
same,"viability, T/C",[22],100%
same,"viability, T/C",[23],82.4%
same,"viability, T/C",[24],57.1%
same,"viability, T/C",[25],94.6%
same,"viability, T/C",[26],95.3%
same,"viability, T/C",[27],106%
same,"viability, T/C",[28],104%
same,"viability, T/C",[29],79.2%
same,"viability, T/C",[30],62.6%
same,"viability, T/C",[31],103%
same,"viability, T/C",[32],93.4%
same,"viability, T/C",[33],110%
same,"viability, T/C",[34],106%
same,"viability, T/C",[35],75.3%
same,"viability, T/C",[36],57.8%
C=CC(=O)N1CCN(c2nc(=O)n(-c3c(C)ccnc3C(C)C)c3nc(-c4c(O)cccc4F)c(F)cc23)C(C)C1 (stereo not given) + Nc1ccc(C#CCN(C(=O)Cc2ncc(C(F)(F)F)cc2C(F)(F)F)c2ccc(F)cc2)nn1,IC50,second compound 0.0316 µM,> 10 µM
same,IC50,second compound 0.1 µM,> 10 µM
same,IC50,second compound 0.316 µM,> 10 µM
same,IC50,second compound 1 µM,> 10 µM
same,IC50,second compound 3.16 µM,> 10 µM
same,IC50,second compound 10 µM,> 10 µM
same,"viability, T/C",[1],71.3%
same,"viability, T/C",[2],69.1%
same,"viability, T/C",[3],67.8%
same,"viability, T/C",[4],82.7%
same,"viability, T/C",[5],82.3%
same,"viability, T/C",[6],83.9%
same,"viability, T/C",[7],63.3%
same,"viability, T/C",[8],72.8%
same,"viability, T/C",[9],64.7%
same,"viability, T/C",[10],72%
same,"viability, T/C",[11],81.9%
same,"viability, T/C",[12],88.2%
same,"viability, T/C",[13],68.5%
same,"viability, T/C",[14],64.8%
same,"viability, T/C",[15],61.8%
same,"viability, T/C",[16],72.5%
same,"viability, T/C",[17],77.3%
same,"viability, T/C",[18],73.4%
same,"viability, T/C",[19],61.4%
same,"viability, T/C",[20],57.2%
same,"viability, T/C",[21],71.7%
same,"viability, T/C",[22],78.3%
same,"viability, T/C",[23],75.8%
same,"viability, T/C",[24],91.2%
same,"viability, T/C",[25],60.4%
same,"viability, T/C",[26],67.2%
same,"viability, T/C",[27],71.5%
same,"viability, T/C",[28],70.6%
same,"viability, T/C",[29],77.8%
same,"viability, T/C",[30],91%
same,"viability, T/C",[31],64.5%
same,"viability, T/C",[32],63.8%
same,"viability, T/C",[33],73.9%
same,"viability, T/C",[34],77.2%
same,"viability, T/C",[35],91.1%
same,"viability, T/C",[36],72.1%
COc1cc(C2c3cc4c(cc3C(OC3OC5COC(C)OC5C(O)C3O)C3COC(=O)C23)OCO4)cc(OC)c1O (stereo not given) + Nc1ccc(C#CCN(C(=O)Cc2ncc(C(F)(F)F)cc2C(F)(F)F)c2ccc(F)cc2)nn1,IC50,second compound 0.0316 µM,> 10 µM
same,IC50,second compound 0.1 µM,> 10 µM
same,IC50,second compound 0.316 µM,> 10 µM
same,IC50,second compound 1 µM,> 10 µM
same,IC50,second compound 3.16 µM,> 10 µM
same,IC50,second compound 10 µM,> 10 µM
same,"viability, T/C",[1],103%
same,"viability, T/C",[2],99.1%
same,"viability, T/C",[3],65.7%
same,"viability, T/C",[4],82.1%
same,"viability, T/C",[5],67.5%
same,"viability, T/C",[6],60%
same,"viability, T/C",[7],112%
same,"viability, T/C",[8],98.8%
same,"viability, T/C",[9],81%
same,"viability, T/C",[10],75.9%
same,"viability, T/C",[11],69.4%
same,"viability, T/C",[12],59.6%
same,"viability, T/C",[13],104%
same,"viability, T/C",[14],105%
same,"viability, T/C",[15],92.3%
same,"viability, T/C",[16],64.4%
same,"viability, T/C",[17],69.7%
same,"viability, T/C",[18],54%
same,"viability, T/C",[19],104%
same,"viability, T/C",[20],102%
same,"viability, T/C",[21],83.2%
same,"viability, T/C",[22],80%
same,"viability, T/C",[23],87.8%
same,"viability, T/C",[24],62.1%
same,"viability, T/C",[25],91.8%
same,"viability, T/C",[26],117%
same,"viability, T/C",[27],81.8%
same,"viability, T/C",[28],73.2%
same,"viability, T/C",[29],69.1%
same,"viability, T/C",[30],58.6%
same,"viability, T/C",[31],101%
same,"viability, T/C",[32],107%
same,"viability, T/C",[33],92.3%
same,"viability, T/C",[34],75%
same,"viability, T/C",[35],80.7%
same,"viability, T/C",[36],70.5%
CC(C)n1c(=O)n(C)c2cnc3cc(F)c(-c4ccc(OCCCN5CCCCC5)nc4)cc3c21 + COC1C(OC(N)=O)C(O)C(Oc2ccc3c(O)c(NC(=O)c4ccc(O)c(CC=C(C)C)c4)c(=O)oc3c2C)OC1(C)C,IC50,second compound 0.0316 µM,> 10 µM
same,IC50,second compound 0.1 µM,> 10 µM
same,IC50,second compound 0.316 µM,> 10 µM
same,IC50,second compound 1 µM,> 10 µM
same,IC50,second compound 3.16 µM,> 10 µM
same,IC50,second compound 10 µM,> 10 µM
same,"viability, T/C",[1],92.2%
same,"viability, T/C",[2],94.5%
same,"viability, T/C",[3],97.4%
same,"viability, T/C",[4],93.1%
same,"viability, T/C",[5],88.2%
same,"viability, T/C",[6],65.1%
same,"viability, T/C",[7],99%
same,"viability, T/C",[8],103%
same,"viability, T/C",[9],93.9%
same,"viability, T/C",[10],104%
same,"viability, T/C",[11],91.8%
same,"viability, T/C",[12],82.6%
same,"viability, T/C",[13],97%
same,"viability, T/C",[14],92.2%
same,"viability, T/C",[15],97.3%
same,"viability, T/C",[16],101%
same,"viability, T/C",[17],97%
same,"viability, T/C",[18],76.3%
same,"viability, T/C",[19],102%
same,"viability, T/C",[20],103%
same,"viability, T/C",[21],108%
same,"viability, T/C",[22],91.2%
same,"viability, T/C",[23],94.1%
same,"viability, T/C",[24],84.5%
same,"viability, T/C",[25],109%
same,"viability, T/C",[26],108%
same,"viability, T/C",[27],110%
same,"viability, T/C",[28],95.7%
same,"viability, T/C",[29],95.9%
same,"viability, T/C",[30],81%
same,"viability, T/C",[31],106%
same,"viability, T/C",[32],97.3%
same,"viability, T/C",[33],102%
same,"viability, T/C",[34],98.3%
same,"viability, T/C",[35],78.9%
same,"viability, T/C",[36],72.8%
COc1cc2cc(C(=O)CCC(=O)O)sc2cc1OC + Cc1cccc(N(C)C(=O)C2C(O)CCN2c2nc(C)cc(C(F)(F)F)c2C#N)c1,IC50,second compound 0.0316 µM,> 10 µM
same,IC50,second compound 0.1 µM,> 10 µM
same,IC50,second compound 0.316 µM,> 10 µM
same,IC50,second compound 1 µM,> 10 µM
same,IC50,second compound 3.16 µM,> 10 µM
same,IC50,second compound 10 µM,> 10 µM
same,"viability, T/C",[1],99.1%
same,"viability, T/C",[2],101%
same,"viability, T/C",[3],109%
same,"viability, T/C",[4],106%
same,"viability, T/C",[5],101%
same,"viability, T/C",[6],115%
same,"viability, T/C",[7],98.3%
same,"viability, T/C",[8],107%
same,"viability, T/C",[9],111%
same,"viability, T/C",[10],87.8%
same,"viability, T/C",[11],95.6%
same,"viability, T/C",[12],102%
same,"viability, T/C",[13],115%
same,"viability, T/C",[14],114%
same,"viability, T/C",[15],89.5%
same,"viability, T/C",[16],100%
same,"viability, T/C",[17],95.9%
same,"viability, T/C",[18],102%
same,"viability, T/C",[19],91.7%
same,"viability, T/C",[20],98.5%
same,"viability, T/C",[21],90.2%
same,"viability, T/C",[22],118%
same,"viability, T/C",[23],92.8%
same,"viability, T/C",[24],102%
same,"viability, T/C",[25],94.9%
same,"viability, T/C",[26],115%
same,"viability, T/C",[27],116%
same,"viability, T/C",[28],112%
same,"viability, T/C",[29],112%
same,"viability, T/C",[30],106%
same,"viability, T/C",[31],121%
same,"viability, T/C",[32],108%
same,"viability, T/C",[33],122%
same,"viability, T/C",[34],116%
same,"viability, T/C",[35],119%
same,"viability, T/C",[36],117%
